Laboratory results as given in patent US20040142971A1, “BENZOTHIOPHENE COMPOUNDS HAVING ANTIINFECTIVE ACTIVITY” (GeneSoft, Inc., priority 2001, published 2004).

Experiments:
B. Cereus ATCC 11778 = assay: MIC, NCCLS broth microdilution; format: cell-based, Bacillus cereus; conditions: A = B. Cereus ATCC 11778
Source text: (§1) In vitro biological activity data were collected for a variety of microorganisms, including Bacillus cereus (ATCC 11778), Staphylococcus aureus (ATCC 27660 (a methicillin resistant strain (MRSA), ATCC 33591 and ATCC 43300); ATCC 13709, a methicillin sensitive strain (MSSA)); Streptococcus pneumoniae (ATCC 51422, a penicillin resistant strain (PRSP)), Enterococcus faecium (ATCC 51559, a vancomycin resistant strain (VRE)), and Staphylococcus epidermidis (ATCC 700586, a methycillin resistant strain (MRSE)). Additionally, antifungal activity data were collected for Candida albicans (ATCC 38247). Minimal inhibition concentrations (MIC's) were determined using the National Committee for Clinical Laboratory Standards (NCCLS) broth microdilution assay in microtiter plates, as set forth in: (1) the guidelines of the National Committee for Clinical Laboratory Standards (NCCLS) Document M7-A4 (NCCLS, 1997); (2) the guidelines of the National Committee for Clinical Laboratory Standards (NCCLS) Document M11-A4 (NCCLS, 1997); and (3) the guidelines and reference method of the National Committee for Clinical Laboratory Standards (NCCLS) Document M27-T (NCCLS, 1995). For antifungal essays, the method recommended in Murray, PR., 1995 Manual of Clinical Microbiology (ASM Press, Washington, D.C.), was employed.

[1] = tested on: S. aureus ATCC 27660 (methicillin resistant strain, MRSA); assay: MIC, NCCLS broth microdilution; format: cell-based, Staphylococcus aureus; conditions: D = S. aureus ATCC 27660
Source text: as §1

[2] = tested on: S. aureus ATCC 13709 (methicillin sensitive strain, MSSA); assay: MIC, NCCLS broth microdilution; format: cell-based, Staphylococcus aureus; conditions: C = S. aureus ATCC 13709
Source text: as §1

[3] = tested on: Candida albicans (ATCC 38247); assay: Antifungal MIC; format: cell-based
Source text: as §1, with “employed. The results are presented in Table A below, which is keyed as follows: […]” for “employed.”

[4] = tested on: methycillin resistant Staphylococcus aureus ATCC 33591; assay: Murine neutropenic thigh model; format: in vivo, mice; conditions: 50 mg/kg intravenously two hours post infection, 6 hr after treatment
Protocol: A S. aureus ATCC 33591 culture was grown to log phase overnight and diluted in phosphate buffered saline (pH 7.2) to an optical density of about 0.1 at 600 nm, giving an approximate concentration of 10^8 cfu/mL. The suspension was diluted 1:100 in phosphate buffered saline (pH 7.2) for a final concentration of 10^6 cfu/mL.
Outbred female CF1 mice (approx. 20 gram body weight) were rendered neutropenic by treatment with cyclophosphamide (200 mg/kg body weight, intraperitoneal injection) at 2 and 4 days prior to inoculation. Groups of 5 mice were inoculated with 0.05 mL of the bacteria (approx. 10^6 cfu/mL) into the anterior thigh. Each group was treated intravenously two hours post infection with vehicle (phosphate buffered saline) or test compound. The mice were sacrificed at either 6 or 24 hrs after treatment and thighs were collected aseptically. Each thigh was weighed, placed into sterile saline, and homogenized. The tissue homogenates were diluted appropriately for plating on agar plates. Colony counts were recorded (cfu/gram) and compared to control groups.
In vivo efficacy was shown by a decrease in colony count (log cfu/gram of tissue) in the compound-treated animals when compared against the colony count in animals given only the vehicle.

[5] = tested on: S. epidermidis ATCC 700586 (methycillin resistant strain, MRSE); assay: MIC, NCCLS broth microdilution; format: cell-based, Staphylococcus epidermidis; conditions: G = S. epidermidis ATCC 700586
Source text: as §1

S. aureus ATCC 33591 = assay: MIC, NCCLS broth microdilution; format: cell-based, Staphylococcus aureus; conditions: E = S. aureus ATCC 33591
Source text: as §1

[6] = tested on: E. faecium ATCC 51559 (vancomycin resistant strain, VRE); assay: MIC, NCCLS broth microdilution; format: cell-based, Enterococcus faecium; conditions: B = E. faecium ATCC 51559
Source text: as §1

[7] = tested on: S. pneumoniae ATCC 51422 (penicillin resistant strain, PRSP); assay: MIC, NCCLS broth microdilution; format: cell-based, Streptococcus pneumoniae; conditions: H = S. pneumoniae ATCC 51422
Source text: as §1

| SMILES | Minimum Inhibitory Concentration (MIC) (B. Cereus ATCC 11778) | Minimum Inhibitory Concentration (MIC) [1] | Minimum Inhibitory Concentration (MIC) [2] | MIC [3] | Colony Count (log cfu/gram) Compound [4] | Minimum Inhibitory Concentration (MIC) [5] | Minimum Inhibitory Concentration (MIC) (S. aureus ATCC 33591) | Minimum Inhibitory Concentration (MIC) [6] | Minimum Inhibitory Concentration (MIC) [7] |
| --- | --- | --- | --- | --- | --- | --- | --- | --- | --- |
| Cn1cc(NC(=O)c2cc(NC(=O)c3cc(NC(=O)c4cc5ccccc5cn4)c[nH]3)cn2C)cc1C(=O)NCCN1CCOCC1 [Ib-50] | +++ (+++ = MIC ≦ 4) | +++ (+++ = MIC ≦ 4) | +++ (+++ = MIC ≦ 4) | ++ (++ = MIC between 4 and 12) | 7.97 log cfu/gram |  |  |  |  |
| Cc1cc(NC(=O)c2cc(NC(=O)c3cc(NC(=O)c4cc5ccccc5cn4)cn3C)cn2CCCN(C)C)sn1 [Ib-66] | +++ (+++ = MIC ≦ 4) | +++ (+++ = MIC ≦ 4) | +++ (+++ = MIC ≦ 4) |  |  | +++ (+++ = MIC ≦ 4) | +++ (+++ = MIC ≦ 4) | +++ (+++ = MIC ≦ 4) | +++ (+++ = MIC ≦ 4) |
| Cn1cc(NC(=O)c2cc(NC(=O)c3cc(NC(=O)c4cc5ccccc5cn4)cn3C)c[nH]2)cc1C(=O)NCCN1CCOCC1 [Ib-67] | +++ (+++ = MIC ≦ 4) | +++ (+++ = MIC ≦ 4) | +++ (+++ = MIC ≦ 4) |  |  | +++ (+++ = MIC ≦ 4) | +++ (+++ = MIC ≦ 4) | +++ (+++ = MIC ≦ 4) | +++ (+++ = MIC ≦ 4) |
| Cn1cc(NC(=O)c2cc3ccccc3cn2)cc1C(=O)Nc1cc(C(=O)Nc2cc(C(=O)NCCN3CCCCC3)n(CCN3CCCCC3)c2)n(C)c1 [Ib-68] | +++ (+++ = MIC ≦ 4) | +++ (+++ = MIC ≦ 4) | +++ (+++ = MIC ≦ 4) |  |  | +++ (+++ = MIC ≦ 4) | +++ (+++ = MIC ≦ 4) | +++ (+++ = MIC ≦ 4) | +++ (+++ = MIC ≦ 4) |
| Cn1cc(NC(=O)c2cc(NC(=O)c3cc(NC(=O)c4cc5ccccc5cn4)c[nH]3)cn2C)cc1C(=O)NCCc1ccccn1 [Ib-69] | >32 mg/L | +++ (+++ = MIC ≦ 4) | +++ (+++ = MIC ≦ 4) |  |  | +++ (+++ = MIC ≦ 4) | +++ (+++ = MIC ≦ 4) | +++ (+++ = MIC ≦ 4) | +++ (+++ = MIC ≦ 4) |
| Cn1cc(NC(=O)c2cc(NC(=O)c3cc(NC(=O)c4cc5ccccc5cn4)c[nH]3)cn2C)cc1C(=O)NCCc1ccccn1 [Ib-70] | +++ (+++ = MIC ≦ 4) | +++ (+++ = MIC ≦ 4) | +++ (+++ = MIC ≦ 4) |  |  | +++ (+++ = MIC ≦ 4) | +++ (+++ = MIC ≦ 4) | +++ (+++ = MIC ≦ 4) | +++ (+++ = MIC ≦ 4) |
| Cn1cc(NC(=O)c2cc(NC(=O)c3cc(NC(=O)c4cc5ccccc5cn4)c[nH]3)cn2C)cc1C(=O)NCCN1CCC(F)CC1 [Ib-71] | +++ (+++ = MIC ≦ 4) | +++ (+++ = MIC ≦ 4) | +++ (+++ = MIC ≦ 4) |  |  | +++ (+++ = MIC ≦ 4) | +++ (+++ = MIC ≦ 4) | +++ (+++ = MIC ≦ 4) | +++ (+++ = MIC ≦ 4) |
| COCn1cc(NC(=O)c2cc3ccccc3cn2)cc1C(=O)Nc1cc(C(=O)Nc2cc(C(=O)NCCN3CCOCC3)n(C)c2)n(C)c1 [Ib-72] | +++ (+++ = MIC ≦ 4) | +++ (+++ = MIC ≦ 4) | +++ (+++ = MIC ≦ 4) |  |  | +++ (+++ = MIC ≦ 4) | +++ (+++ = MIC ≦ 4) | +++ (+++ = MIC ≦ 4) | + (+ = MIC from 12 to 32, inclusive) |
| CC(=O)[O-].Cc1cc(NC(=O)c2cc(NC(=O)c3cc(NC(=O)c4cc5ccccc5cn4)cn3C)cn2CCC[N+](C)(C)C)sn1 [Ib-74] | +++ (+++ = MIC ≦ 4) | +++ (+++ = MIC ≦ 4) | +++ (+++ = MIC ≦ 4) |  |  | +++ (+++ = MIC ≦ 4) | +++ (+++ = MIC ≦ 4) | +++ (+++ = MIC ≦ 4) | +++ (+++ = MIC ≦ 4) |
| Cc1cc(NC(=O)c2cc(NC(=O)c3nc(NC(=O)c4cc5ccccc5cn4)cn3C)cn2CCN2CCOCC2)sn1 [Ib-77] | +++ (+++ = MIC ≦ 4) | +++ (+++ = MIC ≦ 4) | +++ (+++ = MIC ≦ 4) |  |  | +++ (+++ = MIC ≦ 4) | +++ (+++ = MIC ≦ 4) | +++ (+++ = MIC ≦ 4) | +++ (+++ = MIC ≦ 4) |
